Assay results taken from patent US20240294499A1, “TARGETED PROTEIN DEGRADATION USING BIFUNCTIONAL COMPOUNDS THAT BIND UBIQUITIN LIGASE AND TARGET MCL-1 PROTEIN” (Captor Therapeutics S.A., priority 2021, published 2024).

Key:
[1] = molecular target: T1, MCL-1 protein (Homo sapiens, UniProt Q07820); assay: OPM-2 cells: MCL-1 protein degradation, Simple Western; format: cell-based; design: endogenous in cells; host or cells: OPM-2; conditions: OPM-2 cell line, 6 h treatment, 100 nM compound, vs DMSO
Source text: The effect of various compounds of the invention and the reference compounds on MCL-1protein degradation in the OPM-2 cell line was investigated, using the degradation assay protocol below.
(§1) OPM-2 cells were maintained in RPMI-1640 medium, supplemented with penicillin/streptomycin and 10% Fetal Bovine Serum (FBS). During the treatment, FBS concentration was reduced to 1%.
(§2) Compound stocks were pre-diluted in DMSO and added directly to the cells growth medium (final DMSO concentration: 0.5%).
(§3) OPM-2 cells were collected, centrifuged (250 rcf, 5 min), resuspended in a growth medium containing 1% FBS and counted. The cell suspension was then adjusted to 1×10^6 cell/ml using a growth medium containing 1% FBS. Afterwards, 0.5×10^6 cells were seeded on 24-well plates in 0.5 mL of medium per well. Immediately after seeding cells, compounds in appropriate concentrations were added to the cell culture medium.
Following the treatment with the compounds, cells were collected from the plates and suspended in a lysis buffer (2% SDS, 50 mM Tris, pH 8.0, 100 U/ml Pierce Universal Nuclease for Cell Lysis, cOmplete EDTA-free Protease Inhibitor Cocktail) and incubated on ice for 45 min.
The following steps, including sample loading, protein separation, immunoprobing or labelling, washes and detection analysis was performed using Jess from ProteinSimple, an automatic system for analyzing protein levels in cell lysates (12-230 kDa Jess or Wes separation module 8×25 capillaries, protein normalization assay, no. SM-PN01-1). The Protein of Interest was detected using MCL-1 (D35A5) Rabbit monoclonal antibody (Cell Signaling, #5453, LOT: 4). Antibody was diluted in a ratio of 1:100 in Antibody diluent.
[%] of protein reduction is calculated in comparison to the cells treated with DMSO, which stand for 0%.
The results for the 6 h treatment with 100 nM compounds are shown in Table 9, using the following labels: • <20% for 0-19% of MCL-1 protein reduction, • ≥20% for 20-39% of MCL-1 protein reduction, • ≥40% for 40-100% of MCL-1 protein reduction.

[2] = molecular target: [MCL-1]-[compound of formula (I)]-[CRBN/DDB1] complex (Homo sapiens, UniProt Q07820+Q96SW2); assay: AlphaLISA dose response ternary complex formation assay; format: binding; conditions: read-out: AlphaLISA dose response Average pEC50 by molecule (converted)
Summary of the method: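 EC50 comes from dose–response of AlphaLISA luminescence (excitation 680, emission 615 nm), normalised between DMSO background and an internal positive control, with concentrations past the hook point dropped. Ternary complex formed by mixing bead-bound biotin-hMCL-1 and His-CRBN/DDB1 (protein solutions 40 and 200 nM) with compound in 2% DMSO, 30 min, 25 °C.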

[3] = system: OPM-2 cells; assay: Cell viability assay (CellTiter-Glo), OPM-2; format: cell-based; conditions: Homo sapiens, 24 hours incubation, 1% FBS, read-out: Average pIC50 by molecule OPM-2 (converted)
Source text: The effect of various compounds of the invention on the viability of OPM-2, MV-4-11 and ARH-77 cell lines was investigated, using the CTG protocol described below.
OPM-2 and MV-4-11 cell lines are derived from multiple myeloma and acute myeloid leukaemia, respectively. Both cell lines are described in the literature as MCL-1 dependent lines, as opposed to lymphoblast-like ARH-77 cell line, which is described as independent of MCL-1 (Tron A E et al. Nat Commun. 2018; 9: 5341; Caenepeel S et al. Cancer Discov. 2018 December; 8(12):1582-1597).
Cells (OPM-2, MV-4-11 or ARH-77) were seeded on […] in a growth medium with FBS reduced to 1%. Next, compound stocks were pre-diluted in DMSO and added directly to the cells growth medium (final DMSO concentration: 0.5%). Compound concentrations used in this assay: 1/3 dilutions starting at 30 uM (9 to 12 points).
After 24 hours of incubation, cell viability was evaluated using CellTiter-Glo Luminescent Cell Viability Assay (Promega, cat #G7572). Luminescence signal was measured using a CLARIOstar Plus Multi-Mode Microplate Reader (574-590 nm).
Results were normalized to DMSO control.

[4] = system: iCELL Cardiomyocytes; assay: Cardiac safety: caspase 3 and 7 activation (Caspase-Glo 3/7) in iCELL Cardiomyocytes; format: cell-based; conditions: for Fold change at 1.2 uM (caspase 3/7 activity in cardiomyocytes): 24 hours incubation, vs DMSO; for activity in caspase activity assay in cardiomyocytes: as opposed to reference compound AZD5991
Source text: The effect of various compounds of the invention and a reference compound AZD5991 on cardiac safety was investigated by the evaluation of caspase 3 and 7 activation using Caspase-Glo 3/7 Assay (Promega; G8092) in iCELL™ Cardiomyocytes from FUJIFILM Cellular Dynamics (Catalog number: 11713). In the Caspase-Glo® 3/7 Assay, the luminescence (measured as Relative Luciferase Units, RLU) is proportional to the amount of caspase activity present in each sample.
The assay is initiated by thawing and seeding iCell® Cardiomyocytes as specified in the User Guide. After 48 hours, the cells are washed to remove unattached cells and debris and immediately treated with compounds or DMSO diluted in the maintenance medium (FCDI; cat: M1003). Compound concentrations used in this assay: 7 points 1/3 dilution curve starting at 100 uM. After 24 hours of incubation with compounds, caspase activity is measured by the addition of the Caspase-Glo® 3/7 Reagent followed by the luminescence measurement.
The analysis of the results is performed by calculation of the fold change in caspase 3/7 activity at a given compound concentration. Fold change is calculated with the formula: […]
where: • RLU Xi is the Relative Luciferase Units of sample I; • RLU BG is the Background Relative Luciferase Units; • RLU C is the Relative Luciferase Units of Control (DMSO).
The experiments were performed in technical duplicates.

[5] = molecular target: T1, MCL-1 protein; assay: OPM-2 cells: MCL-1 protein degradation, Western blot; format: cell-based; design: endogenous in cells; host or cells: OPM-2; conditions: OPM-2 cell line, 6 h treatment, 100 nM compound, vs DMSO
Source text: The effect of various compounds of the invention and the reference compounds on MCL-1 protein degradation in the OPM-2 cell line was investigated, using the degradation assay protocol below.
as §1, §2, §3
Following the treatment with the compounds, cells were collected from the plates and suspended in a lysis buffer (2% SDS, 50 mM Tris, pH 8.0, 100 U/ml Pierce Universal Nuclease for Cell Lysis, complete EDTA-free Protease Inhibitor Cocktail) and incubated on ice for 45 min. The amount of protein was determined via BCA assay, and the equal quantity of each sample was loaded on the precast gel for the protein separation. Following the electrophoresis and transfer to the membrane, the membrane was stained with Ponceau (0.1% (w/v) Ponceau in 5% acetic acid). After total protein detection, the stain was washed out using TBST. After the antibody staining for MCL-1 and α-tubulin, the membranes were washed and signals developed.
Densitometric values for MCL-1 were normalized to total protein level (the Ponceau Staining). [%] of protein reduction is calculated in comparison to the cells treated with DMSO, which stand for 0%.
The results for the 6 h treatment with 100 nM compounds are shown in Table 9, using the following labels: • <30% for 0-29% of MCL-1 protein reduction, • ≥30% for 30-49% of MCL-1 protein reduction, • ≥50% for 50-100% of MCL-1 protein reduction.

[6] = system: MV-4-11 cells; assay: Cell viability assay (CellTiter-Glo), MV-4-11; format: cell-based; conditions: Homo sapiens, MV4-11, 24 hours incubation, 1% FBS, read-out: Average pIC50 by molecule MV-4-11 (converted)
Summary of the method: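 Luminescent ATP readout (CellTiter-Glo) at 24 hours measured viability, expressed relative to DMSO-treated wells. Compound was added directly to the medium as a 9–12-point threefold series starting at 30 uM, at 0.5% final DMSO. The medium contained FBS reduced to 1%.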

Chain of [MCL-1]-[compound of formula (I)]-[CRBN/DDB1] complex (Q07820 whole entry): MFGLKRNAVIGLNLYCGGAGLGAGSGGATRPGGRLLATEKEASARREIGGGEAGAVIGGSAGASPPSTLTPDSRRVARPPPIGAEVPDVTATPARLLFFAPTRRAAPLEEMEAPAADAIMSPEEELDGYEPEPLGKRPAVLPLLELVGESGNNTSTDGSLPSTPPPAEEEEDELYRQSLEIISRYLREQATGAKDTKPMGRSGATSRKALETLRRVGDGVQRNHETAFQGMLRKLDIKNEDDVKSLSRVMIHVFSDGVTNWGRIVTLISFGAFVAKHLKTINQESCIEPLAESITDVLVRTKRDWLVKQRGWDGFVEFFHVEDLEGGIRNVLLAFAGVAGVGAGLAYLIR
Chain of [MCL-1]-[compound of formula (I)]-[CRBN/DDB1] complex (Q96SW2 whole entry): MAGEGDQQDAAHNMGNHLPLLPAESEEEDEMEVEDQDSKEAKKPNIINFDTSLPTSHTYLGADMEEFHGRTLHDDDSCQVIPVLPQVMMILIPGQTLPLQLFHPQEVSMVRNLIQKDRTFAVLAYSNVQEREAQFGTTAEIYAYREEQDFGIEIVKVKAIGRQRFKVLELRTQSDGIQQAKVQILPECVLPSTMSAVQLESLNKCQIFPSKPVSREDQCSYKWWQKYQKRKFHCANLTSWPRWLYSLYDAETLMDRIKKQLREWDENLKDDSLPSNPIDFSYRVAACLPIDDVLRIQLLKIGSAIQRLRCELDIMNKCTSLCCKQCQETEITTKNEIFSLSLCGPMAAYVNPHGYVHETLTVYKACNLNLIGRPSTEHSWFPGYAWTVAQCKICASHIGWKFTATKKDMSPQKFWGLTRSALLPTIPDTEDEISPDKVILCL
Chain of [MCL-1]-[compound of formula (I)]-[CRBN/DDB1] complex (Q16531 whole entry partner): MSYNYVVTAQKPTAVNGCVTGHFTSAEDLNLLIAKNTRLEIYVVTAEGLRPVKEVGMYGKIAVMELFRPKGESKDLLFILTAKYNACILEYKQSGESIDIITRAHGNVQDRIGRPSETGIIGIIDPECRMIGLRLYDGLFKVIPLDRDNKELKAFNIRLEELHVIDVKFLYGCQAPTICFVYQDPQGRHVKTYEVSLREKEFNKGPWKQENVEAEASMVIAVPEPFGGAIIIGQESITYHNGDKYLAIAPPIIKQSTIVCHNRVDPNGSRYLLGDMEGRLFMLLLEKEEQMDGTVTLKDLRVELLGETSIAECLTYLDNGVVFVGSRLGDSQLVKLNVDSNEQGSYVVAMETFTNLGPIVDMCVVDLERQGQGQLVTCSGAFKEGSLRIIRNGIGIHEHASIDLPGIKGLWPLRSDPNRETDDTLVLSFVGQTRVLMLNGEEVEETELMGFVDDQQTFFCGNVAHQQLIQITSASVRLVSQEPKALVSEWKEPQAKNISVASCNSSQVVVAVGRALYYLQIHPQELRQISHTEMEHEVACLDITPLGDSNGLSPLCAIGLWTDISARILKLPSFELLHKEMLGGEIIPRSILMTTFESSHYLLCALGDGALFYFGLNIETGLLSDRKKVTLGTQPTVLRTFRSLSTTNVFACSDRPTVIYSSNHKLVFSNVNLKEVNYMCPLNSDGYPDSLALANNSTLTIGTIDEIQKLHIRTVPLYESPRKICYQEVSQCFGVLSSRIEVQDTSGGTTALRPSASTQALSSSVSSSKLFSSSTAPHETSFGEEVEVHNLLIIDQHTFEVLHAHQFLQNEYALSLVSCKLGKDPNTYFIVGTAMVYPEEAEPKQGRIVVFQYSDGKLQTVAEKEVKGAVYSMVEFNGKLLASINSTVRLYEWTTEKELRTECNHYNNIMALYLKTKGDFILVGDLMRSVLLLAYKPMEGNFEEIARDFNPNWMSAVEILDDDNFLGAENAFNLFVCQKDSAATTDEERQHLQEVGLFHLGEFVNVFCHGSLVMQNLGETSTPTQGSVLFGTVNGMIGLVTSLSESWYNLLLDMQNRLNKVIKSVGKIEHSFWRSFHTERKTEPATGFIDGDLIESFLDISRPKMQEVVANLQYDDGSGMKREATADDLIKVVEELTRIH
T1 sequence (Q07820 whole entry): as the sequence (Q07820 whole entry) above

| SMILES | Simple Western, % of protein reduction [1] [%] | EC50 [2] [nM] | IC50 [3] [nM] | Fold change at 1.2 uM (caspase 3/7 activity in cardiomyocytes) [4] | activity in caspase activity assay in cardiomyocytes [4] | Western blot, % of protein reduction [5] [%] | IC50 [6] [nM] |
| --- | --- | --- | --- | --- | --- | --- | --- |
| Cc1nn(C)c(C)c1-c1c(Cl)ccc2c(CCCOc3cccc4ccccc34)c(C(=O)O)n(CCN3CCN(C(=O)COc4cccc5c4CN(C4CCC(=O)NC4=O)C5=O)CC3)c12 (stereo not shown) [Compound 206, 6-chloro-1-(2-(4-(2-((2-(2,6-dioxopiperidin-3-yl)-1-oxoisoindolin-4-yl)oxy)acetyl)piperazin-1-yl)ethyl)-3-(3-(naphthalen-1-yloxy)propyl)-7-(1,3,5-trimethyl-1H-pyrazol-4-yl)-1H-indole-2-carboxylic acid] | ≥40 | < 100 | ≤ 316 | ≤1.5 ± 0.2 | little to no activity | ≥50 | ≤ 100 |
| Cc1nn(C)c(C)c1-c1c(Cl)ccc2c(CCCOc3cccc4ccccc34)c(C(=O)O)n(CCN3CCN(C(=O)Cn4c(C)nc5c(C(=O)NC6CCC(=O)NC6=O)cccc54)CC3)c12 (stereo not shown) [Compound 266, 6-chloro-1-{2-[4-(2-{4-[(2,6-dioxopiperidin-3-yl)carbamoyl]-2-methyl-1H-1,3-benzodiazol-1-yl}acetyl)piperazin-1-yl]ethyl}-3-[3-(naphthalen-1-yloxy)propyl]-7-(1,3,5-trimethyl-1H-pyrazol-4-yl)-1H-indole-2-carboxylic acid] | ≥40 | < 100 | ≤ 316 | ≤1.5 ± 0.2 | little to no activity |  | ≤ 100 |
| Cc1nn(C)c(C)c1-c1c(Cl)ccc2c(CCCOc3cccc4cc(F)ccc34)c(C(=O)O)n(CCN3CCN(C(=O)COc4cccc5c4C(=O)N(C4CCC(=O)NC4=O)C5=O)CC3)c12 (stereo not shown) [Compound 214, 6-chloro-1-{2-[4-(2-{(2-(2,6-dioxopiperidin-3-yl)-1,3-dioxo-2,3-dihydro-1H-isoindol-4-yl]oxy}acetyl)piperazin-1-yl]ethyl}-3-{3-[(6-fluoronaphthalen-1-yl)oxy]propyl}-7-(1,3,5-trimethyl-1H-pyrazol-4-yl)-1H-indole-2-carboxylic acid] | ≥40 | < 10 | ≤ 316 | ≤1.5 ± 0.2 | little to no activity | ≥50 | ≤ 100 |
| Cc1nc2c(C(=O)NC3CCC(=O)NC3=O)cc(OCC(=O)N3CCN(CCn4c(C(=O)O)c(CCCOc5cccc6ccccc56)c5ccc(Cl)c(-c6c(C)nn(C)c6C)c54)CC3)cc2[nH]1 (stereo not shown) [Compound 263, 6-chloro-1-(2-{4-[2-({4-[(2,6-dioxopiperidin-3-yl)carbamoyl]-2-methyl-1H-1,3-benzodiazol-6-yl}oxy)acetyl]piperazin-1-yl}ethyl)-3-[3-(naphthalen-1-yloxy)propyl]-7-(1,3,5-trimethyl-1H-pyrazol-4-yl)-1H-indole-2-carboxylic acid] | ≥40 | < 100 | ≤ 1000 |  |  | ≥50 | ≤ 316 |
| Cc1cc(OCCCc2c(C(=O)O)n(CCN3CCN(C(=O)COc4cccc5c4C(=O)N(C4CCC(=O)NC4=O)C5=O)CC3)c3c(-c4c(C)nn(C)c4C)c(Cl)ccc23)cc(C)c1Cl (stereo not shown) [Compound 201, 6-chloro-3-(3-(4-chloro-3,5-dimethylphenoxy)propyl)-1-(2-(4-(2-((2-(2,6-dioxopiperidin-3-yl)-1,3-dioxoisoindolin-4-yl)oxy)acetyl)piperazin-1-yl)ethyl)-7-(1,3,5-trimethyl-1H-pyrazol-4-yl)-1H-indole-2-carboxylic acid] | ≥20 | < 100 | ≤ 1000 |  |  | ≥50 | ≤ 100 |
| Cc1nn(C)c(C)c1-c1cccc2c(CCCOc3cccc4ccccc34)c(C(=O)O)n(CCN3CCN(C(=O)COc4cccc5c4C(=O)N(C4CCC(=O)NC4=O)C5=O)CC3)c12 (stereo not shown) [Compound 241, 1-(2-(4-(2-((2-(2,6-dioxopiperidin-3-yl)-1,3-dioxoisoindolin-4-yl)oxy)acetyl)piperazin-1-yl)ethyl)-3-(3-(naphthalen-1-yloxy)propyl)-7-(1,3,5-trimethyl-1H-pyrazol-4-yl)-1H-indole-2-carboxylic acid] | ≥20 | < 100 |  |  |  | ≥50 | ≤ 1000 |
